Test results as given in US12653872B2, “Mimotopes of alpha-synuclein and vaccines thereof for the treatment of synucleinopathy” (AC Immune SA, priority 2008, dated 2026).

What was measured:
[1] = test system: monoclonal antibody specific for human alpha-synuclein at position 115-122 (AFFiRiS3/9, A509); experiment: In vitro inhibition assay (ELISA): peptide competes with binding of the antibody to the coated original epitope; parameters: species or system mouse; settings: for Inhibition: competition code, OD at 40 μg peptide compared to original peptide; for competition in inhibition ELISA: 40 μg peptide, compared to original peptide p4448, FIG. 3
Procedure: 2. In Vitro Inhibition Assay (ELISA)
Different amounts of peptides (concentrations ranging from 40 μg to 0.3 μg (serial dilutions), as indicated in the respective figures) derived from Phage Display were incubated with the monoclonal antibody that was used for the screening procedure. Peptides diminishing subsequent binding of the antibody to the original human alpha-synuclein epitope (amino acids: 115-122 of human alpha-synuclein protein) coated on ELISA plates were considered as inhibiting in this assay.
Weak inhibition means more peptide is required to lower AB binding than with the original epitope; strong inhibition means similar peptide amounts are required for mimotope and original epitope for lowering AB binding. Mimotopes are compared to the original peptide as standard. OD at 40 μg peptide used in the assay is used to calculate the competition capacity compared to original peptide.

[2] = test system: monoclonal antibody specific for human alpha-synuclein at position 115-122 (AFFiRiS3/9, A509); experiment: In vitro binding assay (ELISA): peptide-BSA on plate, incubated with the screening monoclonal antibody; parameters: species or system mouse; settings: FIG. 1 and FIG. 2
Text: 1. In Vitro Binding Assay (ELISA)

[3] = test system: injected peptide (peptide-BSA conjugate); experiment: Mimotope-KLH vaccination of mice: serum titer against injected peptide (ELISA); assay type: in vivo, C57/Bl6 mice; settings: for immune response against injected peptide: C57/Bl6 mice, 30 μg peptide-KLH s.c., alum, repeated vaccination; for titers upon vaccination of mice: FIG. 2 legend
Procedure: (§1) Inhibiting as well as non-inhibiting peptides were coupled to KLH and injected into mice (wildtype C57/Bl6 mice; subcutaneous injection into the flank) together with an appropriate adjuvant (aluminium hydroxide). Animals were vaccinated 4-6 times in biweekly intervals and sera were taken biweekly as well. Titers to injected peptides as well as to an irrelevant peptide were determined with every serum. Titers against the recombinant human alpha-synuclein protein and recombinant human beta-synuclein were determined starting with Serum 3 respectively. Pooled sera were tested against the original human alpha-synuclein epitope (aa115-122). In general sera were analysed by reaction against peptides coupled to Bovine Serum Albumin (BSA) and recombinant full length proteins which were immobilised on ELISA plates. Titers were determined using anti mouse IgG specific antibodies. For detailed results see FIGS. 4A, 4B, 5A and 5B.
(§2) Female C57/Bl6 mice, 5-6 mice per group, were subcutaneously immunized with 30 μg peptide coupled to KLH. Control groups were administered p4448-KLH conjugate. As adjuvant alum was used (always 1 mg per mouse). […] The in vitro ELISA assay to determine the antibody titer was performed with sera of single mice or pooled sera (see FIGS. 5A and 5B) after each vaccination in a two week interval (see FIGS. 4A, 4B, 5A and 5B, respectively). The wells of the ELISA plate were coated with mimotope-BSA conjugate and an irrelevant peptide-BSA conjugate (negative control). The positive control was performed by reaction of the parental antibody with the respective mimotope-BSA conjugate. The detection was performed with anti-mouse IgG. Additionally, recombinant proteins were immobilised on ELISA plates and sera reacted accordingly.

irrelevant peptide p1253 = experiment: Mimotope-KLH vaccination of mice: serum titer against irrelevant peptide (ELISA); assay type: in vivo; settings: C57/Bl6 mice, alum
Procedure: as §1, §2

[4] = test system: recombinant human alpha-synuclein protein; experiment: Mimotope-KLH vaccination of mice: serum titer against recombinant alpha-synuclein (ELISA); assay type: in vivo, C57/Bl6 mice; settings: pooled sera after 4 vaccinations; FIG. 5B
Procedure: as §1, §2

[5] = test system: recombinant human beta-synuclein; experiment: Mimotope-KLH vaccination of mice: serum titer against recombinant beta-synuclein (ELISA); assay type: in vivo, C57/Bl6 mice; settings: pooled sera after 4 vaccinations, FIG. 5B
Procedure: as §1, §2

[6] = test system: human a-syn on brain sections of mice overexpressing human a-syn; experiment: In situ testing: immunohistochemistry with mimotope-induced sera on mouse brain sections; settings: for potential to induce a-syn specific antibodies: vaccines based on the peptide
Procedure: Selected sera eliciting an a-syn cross reactivity were also tested for the ability to detect human a-syn on mouse brain sections in situ. For detailed results see FIGS. 6A, 6B and 6C.
Mimotopes eliciting an a-syn specific immune response can also detect a-syn immunoreactive inclusions in transgenic mouse brain tissue. As depicted in FIGS. 6A, 6B and 6C, sera derived from mimotope vaccinated animals are able to stain a-syn positive structures present on mouse brain sections from animals overexpressing human a-syn. Briefly, sera positive for human a-syn reactivity in ELISA have been used for immunohistochemistry (IHC). Paraffin embedded […] sections of mouse brain, mounted on Superfrost Plus glass slides, were subjected to IHC. Sections were incubated with sera (dilution 1:100 and 1:400 in PBS) and subsequently stained according to standard protocols for immunohistochemistry using VECTASTAIN™ ABC Systems (which is an Avidin-Biotin Complex Immunohistochemical Staining Kit from Vector Laboratories), DAB and MOM blocking (all reactions have been performed using commercially available reagents obtained from Vector labs respectively and have been performed according to manufacturer's protocols). Counterstaining was performed with Haematoxylin. Slides were mounted in Entellan and subsequently documented using conventional brightfield microscopy. A monoclonal antibody specific for human a-syn (LB509, Covance) has been used as a positive control for synuclein detection at a final dilution of 1/250.

Q: With CDAPVTPDT [p4563] as the substance, how does the Inhibition [1] read?
A: 1 (Weaker than original epitope (OD of 40 μg peptide below 5 times of original peptide))

Q: With CDAPVYPDG [p4570] as the substance, how does the Inhibition [1] read?
A: 1 (Weaker than original epitope (OD of 40 μg peptide below 5 times of original peptide))

Q: With CDHPVHPDS [p4554] as the substance, how does the Inhibition [1] read?
A: 1 (Weaker than original epitope (OD of 40 μg peptide below 5 times of original peptide))

Q: Which Inhibition [1] does the source give for CDHPVTPDR [p4559] here?
A: 1 (Weaker than original epitope (OD of 40 μg peptide below 5 times of original peptide))

Q: How did the Inhibition [1] turn out when CDLPVTPDR [p4566] was run?
A: 1 (Weaker than original epitope (OD of 40 μg peptide below 5 times of original peptide))

Q: With CDMPVDPDN [p4448, reference compound] as the substance, how does the “binding to / detection by the monoclonal antibody in ELISA” value (from here on “binding to / detection”) [2] read?
A: are detected by the antibody

Q: And the “immune response against injected peptide” value [3]?
A: elicited immune responses against the injected peptide

Q: What about the “immune response against unrelated sequence p1253” value (irrelevant peptide p1253) of the same substance?
A: failed to induce an unspecific immune response

Q: What about the “reactivity of induced sera with alpha-synuclein” value [4] of the same substance?
A: show titers against alpha-synuclein

Q: What about the “reactivity of induced sera with beta-synuclein” value (shortened to “reactivity … with beta-synuclein”) [5] of the same substance?
A: detect alpha and beta-synuclein

Q: What about the “reactivity … with beta-synuclein” value ([5]; listed as original epitope) of the same substance?
A: also detected the full length beta-synuclein protein

Q: For CDMPVDPGS [p4450], which “binding to / detection” value [2] is on record?
A: are not detected

Q: Which “reactivity of induced sera with alpha-synuclein” value [4] does the source give for CDMPVLPD [p4457] here?
A: show titers against alpha-synuclein

Q: How did the Inhibition [1] turn out when CDMPVLPDG [p4497] was run?
A: 1 (Weaker than original epitope (OD of 40 μg peptide below 5 times of original peptide))

Q: With CDMPVLPDN [p4463] as the substance, how does the Inhibition [1] read?
A: 2 (strong inhibition (as original epitope; OD of 40 μg peptide below 2 times of original peptide))

Q: And the “reactivity of induced sera with alpha-synuclein” value [4]?
A: show titers against alpha-synuclein

Q: For CDMPVSPDR [p4555], which Inhibition [1] is on record?
A: 1 (Weaker than original epitope (OD of 40 μg peptide below 5 times of original peptide))

Q: What does the source list for CDMPVTPDT [p4562]?
A: Inhibition [1]: 2 (strong inhibition (as original epitope; OD of 40 μg peptide below 2 times of original peptide)); potential to induce a-syn specific antibodies [6]: potential to induce a-syn specific antibodies

Q: With CDMPVWPDG [p4569] as the substance, how does the Inhibition [1] read?
A: 1 (Weaker than original epitope (OD of 40 μg peptide below 5 times of original peptide))

Q: CDNPVHPEN [p4492] was tested. Which “competition in inhibition ELISA” value [1] did it give?
A: do not show competition

Q: With CDQPVLPD [p4456] as the substance, how does the “immune response against injected peptide” value [3] read?
A: elicited immune responses against the injected peptide

Q: What about the “immune response against unrelated sequence p1253” value (irrelevant peptide p1253) of the same substance?
A: failed to induce an unspecific immune response

Q: And the “potential to induce a-syn specific antibodies” value [6]?
A: potential to induce a-syn specific antibodies

Q: For CDQPVLPDG [p4496], which Inhibition [1] is on record?
A: 1 (Weaker than original epitope (OD of 40 μg peptide below 5 times of original peptide))

Q: For CDQPVLPDN [p4462], which Inhibition [1] is on record?
A: 2 (strong inhibition (as original epitope; OD of 40 μg peptide below 2 times of original peptide))

Q: For CDQPVYPDI [p4557], which “binding to / detection” value [2] is on record?
A: weaker binding than the original peptide p4448

Q: And the Inhibition [1]?
A: 1 (Weaker than original epitope (OD of 40 μg peptide below 5 times of original peptide))

Q: What about the “titers upon vaccination of mice” value [3] of the same substance?
A: > 1/20000

Q: CDRPVAPEG [p4553] was tested. Which “binding to / detection” value [2] did it give?
A: strong binding

Q: And the “titers upon vaccination of mice” value [3]?
A: > 1/20000

Q: For CDRPVQPDR [p4571], which Inhibition [1] is on record?
A: 1 (Weaker than original epitope (OD of 40 μg peptide below 5 times of original peptide))

Q: Which results are given for CDRPVTPDN [p4491]?
A: competition in inhibition ELISA [1]: show similar competition as the original peptide p4448; Inhibition [1]: 7

Q: For CDRPVYPDI [p4558], which Inhibition [1] is on record?
A: 2 (strong inhibition (as original epitope; OD of 40 μg peptide below 2 times of original peptide))

Q: With CDSPVHPDT [p4567] as the substance, how does the Inhibition [1] read?
A: 1 (Weaker than original epitope (OD of 40 μg peptide below 5 times of original peptide))

Q: How did the Inhibition [1] turn out when CDSPVLPDG [p4498] was run?
A: 1 (Weaker than original epitope (OD of 40 μg peptide below 5 times of original peptide))

Q: And the “a-syn staining by induced serum in immunohistochemistry” value ([6]; murine hippocampus, human a-syn transgenic, sera diluted 1:100 and 1:400, FIG. 6C)?
A: specific a-syn staining similar to the staining present in FIG. 6A

Q: What about the “potential to induce a-syn specific antibodies” value [6] of the same substance?
A: potential to induce a-syn specific antibodies

Q: How did the Inhibition [1] turn out when CDSPVLPDN [p4464] was run?
A: 2 (strong inhibition (as original epitope; OD of 40 μg peptide below 2 times of original peptide))

Q: For CDSPVVPDN [p4564], which Inhibition [1] is on record?
A: 1 (Weaker than original epitope (OD of 40 μg peptide below 5 times of original peptide))

Q: For CDSPVWAEN [p4466], which “immune response against injected peptide” value [3] is on record?
A: elicited immune responses against the injected peptide

Q: What about the “immune response against unrelated sequence p1253” value (irrelevant peptide p1253) of the same substance?
A: failed to induce an unspecific immune response

Q: For CDTPVIPDN [p4495], which Inhibition [1] is on record?
A: 1 (Weaker than original epitope (OD of 40 μg peptide below 5 times of original peptide))

Q: For CDTPVLAEN [p4467], which “immune response against injected peptide” value [3] is on record?
A: elicited immune responses against the injected peptide

Q: And the “immune response against unrelated sequence p1253” value (irrelevant peptide p1253)?
A: failed to induce an unspecific immune response

Q: With CDTPVLPDS [p4561] as the substance, how does the Inhibition [1] read?
A: 2 (strong inhibition (as original epitope; OD of 40 μg peptide below 2 times of original peptide))

Q: Which Inhibition [1] does the source give for CDTPVYPDN [p4494] here?
A: 2 (strong inhibition (as original epitope; OD of 40 μg peptide below 2 times of original peptide))

Q: How did the Inhibition [1] turn out when CDVPVLPDN [p4493] was run?
A: 2 (strong inhibition (as original epitope; OD of 40 μg peptide below 2 times of original peptide))

Q: Which Inhibition [1] does the source give for CEMPVDPDN [P4648] here?
A: 1 (Weaker than original epitope (OD of 40 μg peptide below 5 times of original peptide))

Q: How did the “competition in inhibition ELISA” value [1] turn out when CHDRPVTPDN [p4490] was run?
A: show similar competition as the original peptide p4448

Q: What about the Inhibition [1] of the same substance?
A: 2 (strong inhibition (as original epitope; OD of 40 μg peptide below 2 times of original peptide))

Q: With CYDRPVQPDR [p4572] as the substance, how does the Inhibition [1] read?
A: 1 (Weaker than original epitope (OD of 40 μg peptide below 5 times of original peptide))

Q: How did the “reactivity … with beta-synuclein” value [5] turn out when DMPVDPDN was run?
A: did not distinguish between the two recombinant synuclein proteins

Q: How did the “binding to / detection” value [2] turn out when DMPVDPDNC [p4449] was run?
A: are detected by the antibody

Q: DMPVDPGSC [p4451] was tested. Which “binding to / detection” value [2] did it give?
A: are not detected

Q: With DMPVLPDC [p4641] as the substance, how does the Inhibition [1] read?
A: 2 (strong inhibition (as original epitope; OD of 40 μg peptide below 2 times of original peptide))

Q: With DQPVLPDC [p4640] as the substance, how does the Inhibition [1] read?
A: 2 (strong inhibition (as original epitope; OD of 40 μg peptide below 2 times of original peptide))

Q: For “p4447: Human beta-syn (Full length; NCBI Acc. No. NP_001001502)”, which “binding to / detection” value [2] is on record?
A: are not detected
